Test systems include HL-60(TB) leukemia; HCT-15 colon; SF-295 CNS; SK-MEL-28 melanoma; UACC-62 melanoma; NCI-H522 lung; A549 NSCLC; OVCAR-3 ovarian; M14 melanoma; MOLT-4 leukemia.
Common to all, as to assay: NCI tumour cell line growth inhibition, 48 h

Molecules are shown by their SMILES. Where “and” joins values, the source holds several entries; their conditions need not be identical. Equal entries are not always repeated.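 1) Cells in 96-well plates. 2) Compound, 48 h, 5 concentrations. 3) Linear interpolation between surrounding doses. 4) Unreached endpoint = highest concentration. GI50 = concentration required for 50% inhibition of growth. The concentration for full growth arrest is given as TGI.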 Where only a bound is given, the exact number is not on record here.

Take `COc1ccc(C(=O)c2cc3c(N)c(C(=O)Nc4cccc5ccccc45)sc3nc2C)cc1`: the GI50 was 0.15 µM in the test with HL-60(TB) leukemia; 0.192 µM with HCT-15 colon; 0.172 µM in the test with SF-295 CNS; over 50 µM in the test with SK-MEL-28 melanoma; 0.285 µM with UACC-62 melanoma; 0.226 µM with NCI-H522 lung. The GI50 is 0.266 µM with A549 NSCLC, 0.156 µM in the test with OVCAR-3 ovarian, 0.166 µM in the test on M14 melanoma and 0.308 µM in the test on MOLT-4 leukemia. The TGI in the test on HL-60(TB) leukemia was 0.503 µM; in the test with HCT-15 colon, over 50 µM; in the test on SF-295 CNS, over 50 µM; in the test with SK-MEL-28 melanoma it was over 50 µM; in the test with UACC-62 melanoma, over 50 µM; in the test with NCI-H522 lung, over 50 µM. In addition, the TGI in the test with A549 NSCLC, in the test with OVCAR-3 ovarian, in the test with M14 melanoma and with MOLT-4 leukemia was over 50 µM throughout.

Take `O=C(Nc1ccc(Cl)cc1)Nc1ccc(Nc2nncc3ccccc23)cc1`: the GI50 is 2.42 µM in the test with HL-60(TB) leukemia; 1.59 µM in the test with HCT-15 colon; 2.84 µM with SF-295 CNS; 3.04 µM in the test on SK-MEL-28 melanoma; 0.958 µM in the test on UACC-62 melanoma; 1.32 µM in the test on NCI-H522 lung. Further, the GI50 with A549 NSCLC is 3.03 µM; in the test with OVCAR-3 ovarian, 2.57 µM; in the test on M14 melanoma, 1.52 µM; with MOLT-4 leukemia it was 2.09 µM. The TGI with HL-60(TB) leukemia came out at 7 µM; in the test with HCT-15 colon, 11.8 µM; with SF-295 CNS, 11 µM; in the test with SK-MEL-28 melanoma, 12.8 µM; in the test on UACC-62 melanoma, 7.97 µM; in the test with NCI-H522 lung it was 8.81 µM. Also, the TGI in the test with A549 NSCLC was found to be 19.3 µM; with OVCAR-3 ovarian, 10.3 µM; in the test with M14 melanoma it was 11.5 µM; with MOLT-4 leukemia, 6.36 µM.

For `CC(=O)C1C(=O)C(=O)N(c2ccccc2C(C)C)C1=O` (stereo not given), the TGI in the test on HL-60(TB) leukemia, with HCT-15 colon, in the test on SF-295 CNS, with SK-MEL-28 melanoma, with UACC-62 melanoma and in the test with NCI-H522 lung was over 100 µM each time. The TGI in the test on A549 NSCLC, in the test on OVCAR-3 ovarian, in the test on M14 melanoma and in the test on MOLT-4 leukemia was over 100 µM throughout.

As to `CC1=C(CO)C(=O)O[C@@H]([C@@H](C)[C@H]2CC[C@H]3[C@@H]4C[C@@H](O)[C@@]5(O)CC=CC(=O)[C@]5(C)[C@H]4CC[C@]23C)C1`, the TGI in the test on HL-60(TB) leukemia is over 100 µM; in the test on HCT-15 colon, 32.5 µM; in the test on SF-295 CNS, over 100 µM; with SK-MEL-28 melanoma, over 100 µM; in the test on UACC-62 melanoma, over 100 µM; with NCI-H522 lung, 30.7 µM. Moreover, the TGI in the test with A549 NSCLC, in the test with OVCAR-3 ovarian, in the test on M14 melanoma and in the test on MOLT-4 leukemia was over 100 µM each time.

On to `C=C1C(=O)OC2/C=C(/C)C(OC(C)=O)CC(O)/C(C)=C\C(OC(=O)/C(C)=C\C)C12` (stereo not given), for which the TGI is 60.7 µM in the test with HL-60(TB) leukemia; over 100 µM with HCT-15 colon; over 100 µM with SF-295 CNS; over 100 µM with SK-MEL-28 melanoma; over 100 µM in the test on UACC-62 melanoma; 22.7 µM in the test on NCI-H522 lung. Besides, the TGI with A549 NSCLC, with OVCAR-3 ovarian, in the test with M14 melanoma and in the test on MOLT-4 leukemia was over 100 µM each time.

As to `COc1ccc(C2SC(C)C(=O)N2NC(=O)C(O)c2ccccc2)cc1OC` (stereo not given), the GI50 with HL-60(TB) leukemia, in the test with HCT-15 colon, in the test with SF-295 CNS, with SK-MEL-28 melanoma, in the test on UACC-62 melanoma and in the test with NCI-H522 lung was over 100 µM in each case. In addition, the GI50 in the test with A549 NSCLC, with OVCAR-3 ovarian, in the test on M14 melanoma and in the test with MOLT-4 leukemia was over 100 µM throughout. In addition, the TGI in the test on HL-60(TB) leukemia, in the test with HCT-15 colon, with SF-295 CNS, in the test with SK-MEL-28 melanoma, in the test on UACC-62 melanoma and with NCI-H522 lung was over 100 µM each time. The TGI in the test with A549 NSCLC, with OVCAR-3 ovarian, in the test on M14 melanoma and with MOLT-4 leukemia was over 100 µM throughout.

As to `CN1c2ccccc2N(C)C23N(C)c4ccccc4N(C)C12N(C)c1ccccc1N3C` (stereo not given), the TGI in the test with HL-60(TB) leukemia, in the test with HCT-15 colon, in the test on SF-295 CNS, in the test with SK-MEL-28 melanoma, in the test on UACC-62 melanoma and with NCI-H522 lung was over 100 µM throughout. The TGI in the test with A549 NSCLC, in the test on OVCAR-3 ovarian, with M14 melanoma and with MOLT-4 leukemia was over 100 µM throughout.

With `C=C1c2[nH]c3c([N+](=O)[O-])c(OC)ccc3c2CCN1C(C)=O`, the TGI in the test with HL-60(TB) leukemia, with HCT-15 colon, in the test with SF-295 CNS, with SK-MEL-28 melanoma, with UACC-62 melanoma and with NCI-H522 lung was over 100 µM each time. Further, the TGI with A549 NSCLC, with OVCAR-3 ovarian, in the test with M14 melanoma and in the test on MOLT-4 leukemia was over 100 µM throughout.

`Cc1cc(Cl)ccc1NC(=O)CC/C(CC(=O)C(C)C)=N\NC(=O)C[n+]1ccccc1`: the TGI in the test with HL-60(TB) leukemia, in the test on HCT-15 colon, in the test on SF-295 CNS, in the test on SK-MEL-28 melanoma, in the test with UACC-62 melanoma and with NCI-H522 lung was over 100 µM throughout. Also, the TGI in the test on A549 NSCLC, in the test on OVCAR-3 ovarian, in the test with M14 melanoma and in the test with MOLT-4 leukemia was over 100 µM throughout.

`CCOc1cc2ncc(C#N)c(Nc3ccc(OCc4ccccn4)c(Cl)c3)c2cc1NC(=O)/C=C/CN(C)C`: the GI50 in the test on HL-60(TB) leukemia is 0.855 µM and 0.822 µM; in the test on HCT-15 colon, 0.475 µM and 0.404 µM; in the test on SF-295 CNS, 10.9 µM and > 4.59 µM; in the test on SK-MEL-28 melanoma it was 1.41 µM and 2.36 µM; in the test on UACC-62 melanoma, 1.28 µM and 0.842 µM; in the test with NCI-H522 lung, < 0.01 µM and 0.00351 µM. Further, the GI50 with A549 NSCLC was 0.371 µM and 0.377 µM; in the test on OVCAR-3 ovarian, 1.05 µM and 0.49 µM; with M14 melanoma, 0.392 µM and 0.38 µM; in the test on MOLT-4 leukemia, 0.672 µM and 0.463 µM. Besides, the TGI was 12.9 µM and 2.73 µM with HL-60(TB) leukemia; 7.97 µM and 5.67 µM in the test on HCT-15 colon; 34.7 µM and > 10 µM in the test on SF-295 CNS; 2.96 µM and > 10 µM with SK-MEL-28 melanoma; 3.87 µM and > 10 µM in the test on UACC-62 melanoma; 0.0818 µM and 0.706 µM with NCI-H522 lung. For the same compound, the TGI in the test on A549 NSCLC was 1.94 µM and > 10 µM; with OVCAR-3 ovarian, 20.2 µM and > 6.8 µM; in the test on M14 melanoma, 1.95 µM and 1.58 µM; in the test on MOLT-4 leukemia it was 20.3 µM and > 5.61 µM.

(Values after PubChem BioAssay (NCI).)
